PMC4447944 (The Journal of Biological Chemistry, 2015)

Key:
hACVR2B = target: T1, hACVR2B (Homo sapiens, UniProt Q13705); test: KINOMEscan; assay type: binding
T1 construct: purchased DiscoverX (KINOMEscan platform)

hCLK2 = target: T2, hCLK2 (Homo sapiens, UniProt P49760); test: KINOMEscan; assay type: binding
T2 construct: purchased DiscoverX

hTLK2 = target: T3, hTLK2 (Homo sapiens, UniProt Q86UE8); test: KINOMEscan; assay type: binding
T3 construct: purchased DiscoverX

hEPHA3 = target: T4, hEPHA3 (Homo sapiens, UniProt P29320); test: KINOMEscan; assay type: binding
T4 construct: purchased DiscoverX

hRAF1 = target: T5, hRAF1 (Homo sapiens, UniProt P04049); test: KINOMEscan; assay type: binding
T5 construct: purchased DiscoverX (KINOMEscan platform)

hCSNK1A1 = target: T6, hCSNK1A1 (Homo sapiens, UniProt P48729); test: KINOMEscan; assay type: binding
T6 construct: purchased DiscoverX (KINOMEscan platform)
T6 sequence (P48729 whole entry): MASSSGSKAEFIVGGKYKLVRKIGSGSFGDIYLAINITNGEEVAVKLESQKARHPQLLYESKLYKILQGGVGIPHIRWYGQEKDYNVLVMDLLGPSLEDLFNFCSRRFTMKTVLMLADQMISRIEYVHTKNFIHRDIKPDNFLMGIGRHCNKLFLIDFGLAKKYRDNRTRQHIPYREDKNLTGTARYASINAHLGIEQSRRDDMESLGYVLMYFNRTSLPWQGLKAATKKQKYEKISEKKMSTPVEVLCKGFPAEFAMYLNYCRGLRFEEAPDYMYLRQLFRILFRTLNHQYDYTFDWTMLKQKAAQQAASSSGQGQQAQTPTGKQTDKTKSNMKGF

hMARK2 = target: T7, hMARK2 (Homo sapiens, UniProt Q7KZI7); test: KINOMEscan; assay type: binding
T7 construct: purchased DiscoverX

hAKT3 = target: T8, hAKT3 (Homo sapiens, UniProt Q9Y243); test: KINOMEscan; assay type: binding
T8 construct: purchased DiscoverX

hTYK2(JH1Dom.-catalytic) = target: T9, hTYK2(JH1Dom.-catalytic) (Homo sapiens, UniProt P29597); test: KINOMEscan; assay type: binding
T9 construct: hTYK2(JH1Dom.-catalytic); purchased DiscoverX

hRARβ = target: T10, hRARβ (Homo sapiens, UniProt P10826); test: Nuclear hormone receptor assay (Eurofins-CEREP); conditions: read-out: Relative IC50
T10 construct: Eurofins-CEREP

hKIT(V559D,V654A) = target: T11, hKIT(V559D,V654A) (Homo sapiens, UniProt P10721, V559D/V654A); test: KINOMEscan; assay type: binding
T11 construct: purchased DiscoverX (KINOMEscan platform)

hFYN = target: T12, hFYN (Homo sapiens, UniProt P06241); test: KINOMEscan; assay type: binding
T12 construct: purchased DiscoverX

hCAMK2G = target: T13, hCAMK2G (Homo sapiens, UniProt Q13555); test: KINOMEscan; assay type: binding
T13 construct: purchased DiscoverX

hABL1(pE255K) = target: T14, hABL1(pE255K) (Homo sapiens, UniProt P00519, E255K); test: KINOMEscan; assay type: binding
T14 construct: purchased DiscoverX (KINOMEscan platform)
T14 sequence (P00519 whole entry E255K): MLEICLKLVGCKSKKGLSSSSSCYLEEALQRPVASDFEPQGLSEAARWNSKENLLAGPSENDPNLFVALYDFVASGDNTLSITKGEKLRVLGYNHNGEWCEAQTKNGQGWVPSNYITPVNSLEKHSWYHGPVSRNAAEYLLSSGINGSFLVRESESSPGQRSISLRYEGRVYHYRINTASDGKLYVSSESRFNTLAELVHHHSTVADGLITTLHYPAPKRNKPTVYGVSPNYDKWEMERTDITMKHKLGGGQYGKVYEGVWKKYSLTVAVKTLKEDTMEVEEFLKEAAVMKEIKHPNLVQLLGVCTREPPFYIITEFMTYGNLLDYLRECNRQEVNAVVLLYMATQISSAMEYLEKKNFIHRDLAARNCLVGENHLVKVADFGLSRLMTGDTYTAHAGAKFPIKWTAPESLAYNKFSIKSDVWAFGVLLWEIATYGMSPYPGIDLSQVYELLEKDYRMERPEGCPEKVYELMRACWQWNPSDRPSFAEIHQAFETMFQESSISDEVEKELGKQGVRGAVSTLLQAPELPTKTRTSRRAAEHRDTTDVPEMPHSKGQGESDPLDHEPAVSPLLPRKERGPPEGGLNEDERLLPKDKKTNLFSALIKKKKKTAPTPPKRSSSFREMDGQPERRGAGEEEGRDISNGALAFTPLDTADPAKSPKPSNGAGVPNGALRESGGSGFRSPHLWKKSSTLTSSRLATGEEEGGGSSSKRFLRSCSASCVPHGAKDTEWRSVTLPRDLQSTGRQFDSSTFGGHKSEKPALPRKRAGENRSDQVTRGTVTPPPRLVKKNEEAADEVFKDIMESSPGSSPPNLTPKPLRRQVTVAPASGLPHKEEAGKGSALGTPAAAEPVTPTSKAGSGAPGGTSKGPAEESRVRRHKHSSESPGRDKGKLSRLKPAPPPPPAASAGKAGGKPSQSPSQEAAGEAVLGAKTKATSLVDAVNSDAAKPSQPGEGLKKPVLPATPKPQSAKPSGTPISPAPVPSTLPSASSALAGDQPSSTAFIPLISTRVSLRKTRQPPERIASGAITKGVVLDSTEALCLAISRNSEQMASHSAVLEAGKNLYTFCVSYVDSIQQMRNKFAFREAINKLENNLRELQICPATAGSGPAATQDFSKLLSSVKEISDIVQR

hADORA3 = target: T15, hADORA3 (Homo sapiens, UniProt P0DMS8); test: β-arrestin Antagonist (Eurofins-CEREP); conditions: read-out: % Effect, Inhibition
T15 sequence (P0DMS8 1-318): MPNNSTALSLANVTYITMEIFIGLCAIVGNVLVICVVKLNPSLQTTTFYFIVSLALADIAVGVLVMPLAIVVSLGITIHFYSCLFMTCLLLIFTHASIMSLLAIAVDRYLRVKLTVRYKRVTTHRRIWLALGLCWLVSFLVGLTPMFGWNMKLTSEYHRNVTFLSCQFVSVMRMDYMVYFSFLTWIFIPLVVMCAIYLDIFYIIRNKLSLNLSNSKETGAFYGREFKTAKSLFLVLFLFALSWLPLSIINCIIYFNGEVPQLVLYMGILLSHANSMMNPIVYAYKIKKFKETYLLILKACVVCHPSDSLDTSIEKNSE

hRSK3(Kin.Dom.1-N-term) = target: T16, hRSK3(Kin.Dom.1-N-term) (Homo sapiens, UniProt Q15349); test: KINOMEscan; assay type: binding
T16 construct: hRSK3(Kin.Dom.1-N-term); purchased DiscoverX (KINOMEscan platform)

hKIT(V559D) = target: T17, hKIT(V559D) (Homo sapiens, UniProt P10721, V559D); test: KINOMEscan; assay type: binding
T17 construct: purchased DiscoverX (KINOMEscan platform)

hJNK1 = target: T18, hJNK1 (Homo sapiens, UniProt P45983); test: KINOMEscan; assay type: binding
T18 construct: purchased DiscoverX (KINOMEscan panel)
T18 sequence (P45983 whole entry): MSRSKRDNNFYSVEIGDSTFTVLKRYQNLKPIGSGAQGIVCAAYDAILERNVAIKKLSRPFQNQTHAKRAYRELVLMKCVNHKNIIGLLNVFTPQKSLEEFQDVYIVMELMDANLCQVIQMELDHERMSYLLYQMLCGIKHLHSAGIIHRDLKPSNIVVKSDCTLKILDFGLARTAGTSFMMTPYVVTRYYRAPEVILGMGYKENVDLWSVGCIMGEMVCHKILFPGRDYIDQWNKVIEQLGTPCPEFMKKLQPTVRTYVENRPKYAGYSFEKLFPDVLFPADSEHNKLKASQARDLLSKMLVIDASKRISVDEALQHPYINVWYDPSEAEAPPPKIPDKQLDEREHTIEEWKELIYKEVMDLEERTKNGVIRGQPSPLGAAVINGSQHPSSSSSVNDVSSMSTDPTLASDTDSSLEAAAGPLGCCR

hCSNK1A1L = target: T19, hCSNK1A1L (Homo sapiens, UniProt Q8N752); test: KINOMEscan; assay type: binding
T19 construct: purchased DiscoverX (KINOMEscan platform)

hSNARK = target: T20, hSNARK (Homo sapiens, UniProt Q9H093); test: KINOMEscan; assay type: binding
T20 construct: purchased DiscoverX (KINOMEscan platform)

hSTK33 = target: T21, hSTK33 (Homo sapiens, UniProt Q9BYT3); test: KINOMEscan; assay type: binding
T21 construct: purchased DiscoverX (KINOMEscan platform)

hCLK1 = target: T22, hCLK1 (Homo sapiens, UniProt P49759); test: KINOMEscan; assay type: binding
T22 construct: purchased DiscoverX
T22 sequence (P49759 whole entry): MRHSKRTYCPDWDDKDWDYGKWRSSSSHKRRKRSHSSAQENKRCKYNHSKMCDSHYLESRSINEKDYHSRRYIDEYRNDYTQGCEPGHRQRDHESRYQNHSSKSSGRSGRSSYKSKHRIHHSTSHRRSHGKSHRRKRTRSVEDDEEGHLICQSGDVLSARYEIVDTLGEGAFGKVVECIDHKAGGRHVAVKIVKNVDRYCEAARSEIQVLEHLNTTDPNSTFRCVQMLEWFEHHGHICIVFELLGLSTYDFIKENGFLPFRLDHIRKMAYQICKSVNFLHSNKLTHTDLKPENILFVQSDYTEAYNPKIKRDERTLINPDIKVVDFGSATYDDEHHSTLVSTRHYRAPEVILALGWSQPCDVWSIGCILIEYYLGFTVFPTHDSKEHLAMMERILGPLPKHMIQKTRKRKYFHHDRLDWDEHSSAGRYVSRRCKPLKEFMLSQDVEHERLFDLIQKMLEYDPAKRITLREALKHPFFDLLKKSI

hTESK1 = target: T23, hTESK1 (Homo sapiens, UniProt Q15569); test: KINOMEscan; assay type: binding
T23 construct: purchased DiscoverX

hERK2 = target: T24, hERK2 (Homo sapiens, UniProt P28482); test: KINOMEscan; assay type: binding
T24 construct: purchased DiscoverX

hJAK3(JH1Dom.-catalytic) = target: T25, hJAK3(JH1Dom.-catalytic) (Homo sapiens, UniProt P52333); test: KINOMEscan; assay type: binding
T25 construct: hJAK3(JH1Dom.-catalytic); purchased DiscoverX (KINOMEscan panel)

hJAK2(JH1Dom.-catalytic) = target: T26, hJAK2(JH1Dom.-catalytic) (Homo sapiens, UniProt O60674); test: KINOMEscan; assay type: binding
T26 construct: hJAK2(JH1Dom.-catalytic); purchased DiscoverX (KINOMEscan panel)

hDCAMKL2 = target: T27, hDCAMKL2 (Homo sapiens, UniProt Q8N568); test: KINOMEscan; assay type: binding
T27 construct: purchased DiscoverX (KINOMEscan platform)

hRARγ = target: T28, hRARγ (Homo sapiens, UniProt P13631); test: Nuclear hormone receptor assay (Eurofins-CEREP); conditions: read-out: Relative IC50
T28 construct: Eurofins-CEREP
T28 sequence (P13631 whole entry): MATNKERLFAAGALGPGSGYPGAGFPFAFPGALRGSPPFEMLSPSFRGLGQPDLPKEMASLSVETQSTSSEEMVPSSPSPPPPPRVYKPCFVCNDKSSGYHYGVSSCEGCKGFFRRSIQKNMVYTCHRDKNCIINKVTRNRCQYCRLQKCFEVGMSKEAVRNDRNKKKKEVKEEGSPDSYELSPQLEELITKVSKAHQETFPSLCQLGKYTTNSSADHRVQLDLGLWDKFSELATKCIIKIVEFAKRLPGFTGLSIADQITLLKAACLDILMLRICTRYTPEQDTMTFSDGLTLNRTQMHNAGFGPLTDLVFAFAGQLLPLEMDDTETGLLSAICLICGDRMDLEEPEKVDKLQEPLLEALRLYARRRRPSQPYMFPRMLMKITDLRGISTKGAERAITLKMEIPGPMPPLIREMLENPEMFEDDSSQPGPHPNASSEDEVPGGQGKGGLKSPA

hKIT = target: T29, hKIT (Homo sapiens, UniProt P10721); test: KINOMEscan; assay type: binding
T29 construct: purchased DiscoverX (KINOMEscan panel)

hFLT1 = target: T30, hFLT1 (Homo sapiens, UniProt P17948); test: KINOMEscan; assay type: binding
T30 construct: purchased DiscoverX
T30 sequence (P17948 27-1338): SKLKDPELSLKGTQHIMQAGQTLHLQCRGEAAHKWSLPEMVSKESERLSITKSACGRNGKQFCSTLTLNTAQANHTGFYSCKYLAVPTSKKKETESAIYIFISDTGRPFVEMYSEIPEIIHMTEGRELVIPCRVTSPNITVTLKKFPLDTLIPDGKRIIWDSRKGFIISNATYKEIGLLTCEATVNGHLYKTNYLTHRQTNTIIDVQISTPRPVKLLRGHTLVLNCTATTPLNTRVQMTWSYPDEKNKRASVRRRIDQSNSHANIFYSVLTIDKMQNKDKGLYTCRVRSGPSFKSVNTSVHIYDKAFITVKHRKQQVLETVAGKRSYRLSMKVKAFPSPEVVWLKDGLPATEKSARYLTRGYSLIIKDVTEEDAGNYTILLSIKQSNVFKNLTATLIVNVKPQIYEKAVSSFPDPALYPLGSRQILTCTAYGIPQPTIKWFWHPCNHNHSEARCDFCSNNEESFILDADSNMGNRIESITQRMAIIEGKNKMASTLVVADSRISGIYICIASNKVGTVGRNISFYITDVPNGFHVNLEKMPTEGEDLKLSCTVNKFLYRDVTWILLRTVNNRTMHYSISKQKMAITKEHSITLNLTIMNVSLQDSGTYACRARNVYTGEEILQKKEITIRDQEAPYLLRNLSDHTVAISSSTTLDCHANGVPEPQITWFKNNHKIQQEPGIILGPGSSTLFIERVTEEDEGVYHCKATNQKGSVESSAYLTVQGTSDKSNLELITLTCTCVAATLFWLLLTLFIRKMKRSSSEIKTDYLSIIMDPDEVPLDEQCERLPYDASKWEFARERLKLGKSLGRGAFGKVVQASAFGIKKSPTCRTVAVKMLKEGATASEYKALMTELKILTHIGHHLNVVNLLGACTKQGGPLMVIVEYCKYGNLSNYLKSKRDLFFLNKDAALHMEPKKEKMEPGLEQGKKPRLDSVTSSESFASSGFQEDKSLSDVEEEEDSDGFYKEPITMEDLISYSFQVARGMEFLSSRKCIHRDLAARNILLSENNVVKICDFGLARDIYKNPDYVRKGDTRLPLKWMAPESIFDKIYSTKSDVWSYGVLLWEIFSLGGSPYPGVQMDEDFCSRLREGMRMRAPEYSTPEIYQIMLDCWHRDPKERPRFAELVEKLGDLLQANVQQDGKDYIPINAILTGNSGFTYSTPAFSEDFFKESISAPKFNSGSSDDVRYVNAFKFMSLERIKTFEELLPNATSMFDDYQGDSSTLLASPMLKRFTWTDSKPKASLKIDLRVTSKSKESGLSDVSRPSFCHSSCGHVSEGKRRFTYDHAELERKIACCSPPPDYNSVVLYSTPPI

hHIPK4 = target: T31, hHIPK4 (Homo sapiens, UniProt Q8NE63); test: KINOMEscan; assay type: binding
T31 construct: purchased DiscoverX

hEPHA1 = target: T32, hEPHA1 (Homo sapiens, UniProt P21709); test: KINOMEscan; assay type: binding
T32 construct: purchased DiscoverX

hABL1(F317L) = target: T33, hABL1(F317L) (Homo sapiens, UniProt P00519, F317L); test: KINOMEscan; assay type: binding
T33 construct: purchased DiscoverX (KINOMEscan platform)
T33 sequence (P00519 whole entry F317L): as the sequence (P00519 whole entry E255K) above, with K255E, F317L counted along it

T3 sequence (Q86UE8 whole entry): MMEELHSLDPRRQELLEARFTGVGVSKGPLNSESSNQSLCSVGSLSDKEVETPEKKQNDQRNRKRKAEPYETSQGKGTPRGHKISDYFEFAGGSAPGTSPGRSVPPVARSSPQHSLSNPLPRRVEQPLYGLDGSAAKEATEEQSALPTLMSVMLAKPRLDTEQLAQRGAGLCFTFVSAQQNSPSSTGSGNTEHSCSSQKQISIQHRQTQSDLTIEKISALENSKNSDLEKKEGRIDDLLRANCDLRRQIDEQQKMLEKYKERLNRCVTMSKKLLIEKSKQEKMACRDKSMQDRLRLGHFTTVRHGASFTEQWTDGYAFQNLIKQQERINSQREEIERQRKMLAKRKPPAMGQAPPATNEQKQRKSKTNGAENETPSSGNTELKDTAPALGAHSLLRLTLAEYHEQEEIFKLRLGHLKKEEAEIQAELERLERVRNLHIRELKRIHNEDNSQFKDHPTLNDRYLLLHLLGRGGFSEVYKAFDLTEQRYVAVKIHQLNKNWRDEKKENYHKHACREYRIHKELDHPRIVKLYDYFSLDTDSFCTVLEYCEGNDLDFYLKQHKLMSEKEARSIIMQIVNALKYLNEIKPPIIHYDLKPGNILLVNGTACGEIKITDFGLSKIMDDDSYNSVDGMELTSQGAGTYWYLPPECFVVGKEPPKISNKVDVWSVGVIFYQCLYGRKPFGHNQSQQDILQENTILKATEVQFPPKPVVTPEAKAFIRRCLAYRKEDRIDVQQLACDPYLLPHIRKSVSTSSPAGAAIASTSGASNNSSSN

SMILES: Cc1cn(CCN2CCN(c3ccccc3-c3cc(C#N)cc(C(=O)NCCCN4CCCC4)c3)CC2)c2ccccc12 [LLY-507, 3-cyano-5-{2-[4-[2-(3-methylindol-1-yl)ethyl]piperazin-1-yl]-phenyl}-N-[(3-pyrrolidin-1-yl)propyl]benzamide]
- IC50 (hACVR2B): > 20 µM
- IC50 (hCLK2): > 20 µM
- IC50 (hTLK2): > 20 µM
- IC50 (hEPHA3): > 20 µM
- IC50 (hRAF1): > 20 µM
- IC50 (hCSNK1A1): > 20 µM
- IC50 (hMARK2): > 20 µM
- IC50 (hAKT3): > 20 µM
- IC50 (hTYK2(JH1Dom.-catalytic)): > 20 µM
- IC50 (hRARβ): > 10 µM
- IC50 (hKIT(V559D,V654A)): > 20 µM
- IC50 (hFYN): > 20 µM
- IC50 (hCAMK2G): > 20 µM
- IC50 (hABL1(pE255K)): > 20 µM
- inhibition at 10 µM (hADORA3): -38.3%
- IC50 (hRSK3(Kin.Dom.1-N-term)): > 20 µM
- IC50 (hKIT(V559D)): > 20 µM
- IC50 (hJNK1): > 20 µM
- IC50 (hCSNK1A1L): > 20 µM
- IC50 (hSNARK): > 20 µM
- IC50 (hSTK33): > 20 µM
- IC50 (hCLK1): > 20 µM
- IC50 (hTESK1): > 20 µM
- IC50 (hERK2): > 20 µM
- IC50 (hJAK3(JH1Dom.-catalytic)): > 20 µM
- IC50 (hJAK2(JH1Dom.-catalytic)): > 20 µM
- IC50 (hDCAMKL2): > 20 µM
- IC50 (hRARγ): > 10 µM
- IC50 (hKIT): > 20 µM
- IC50 (hFLT1): > 20 µM
- IC50 (hHIPK4): > 20 µM
- IC50 (hEPHA1): > 20 µM
- IC50 (hABL1(F317L)): > 20 µM
